Experimental findings from article PMC5748644, “Synthesis and In Vitro Cytotoxicity of the 4-(Halogenoanilino)-6-bromoquinazolines and Their 6-(4-Fluorophenyl) Substituted Derivatives as Potential Inhibitors of Epidermal Growth Factor Receptor Tyrosine Kinase” (Pharmaceuticals, 2017) are described below.

By IC50 is commonly meant the concentration needed to halve the response being measured. Low readings indicate greater potency, high ones weaker potency.

T1 sequence (P00533 25-1210): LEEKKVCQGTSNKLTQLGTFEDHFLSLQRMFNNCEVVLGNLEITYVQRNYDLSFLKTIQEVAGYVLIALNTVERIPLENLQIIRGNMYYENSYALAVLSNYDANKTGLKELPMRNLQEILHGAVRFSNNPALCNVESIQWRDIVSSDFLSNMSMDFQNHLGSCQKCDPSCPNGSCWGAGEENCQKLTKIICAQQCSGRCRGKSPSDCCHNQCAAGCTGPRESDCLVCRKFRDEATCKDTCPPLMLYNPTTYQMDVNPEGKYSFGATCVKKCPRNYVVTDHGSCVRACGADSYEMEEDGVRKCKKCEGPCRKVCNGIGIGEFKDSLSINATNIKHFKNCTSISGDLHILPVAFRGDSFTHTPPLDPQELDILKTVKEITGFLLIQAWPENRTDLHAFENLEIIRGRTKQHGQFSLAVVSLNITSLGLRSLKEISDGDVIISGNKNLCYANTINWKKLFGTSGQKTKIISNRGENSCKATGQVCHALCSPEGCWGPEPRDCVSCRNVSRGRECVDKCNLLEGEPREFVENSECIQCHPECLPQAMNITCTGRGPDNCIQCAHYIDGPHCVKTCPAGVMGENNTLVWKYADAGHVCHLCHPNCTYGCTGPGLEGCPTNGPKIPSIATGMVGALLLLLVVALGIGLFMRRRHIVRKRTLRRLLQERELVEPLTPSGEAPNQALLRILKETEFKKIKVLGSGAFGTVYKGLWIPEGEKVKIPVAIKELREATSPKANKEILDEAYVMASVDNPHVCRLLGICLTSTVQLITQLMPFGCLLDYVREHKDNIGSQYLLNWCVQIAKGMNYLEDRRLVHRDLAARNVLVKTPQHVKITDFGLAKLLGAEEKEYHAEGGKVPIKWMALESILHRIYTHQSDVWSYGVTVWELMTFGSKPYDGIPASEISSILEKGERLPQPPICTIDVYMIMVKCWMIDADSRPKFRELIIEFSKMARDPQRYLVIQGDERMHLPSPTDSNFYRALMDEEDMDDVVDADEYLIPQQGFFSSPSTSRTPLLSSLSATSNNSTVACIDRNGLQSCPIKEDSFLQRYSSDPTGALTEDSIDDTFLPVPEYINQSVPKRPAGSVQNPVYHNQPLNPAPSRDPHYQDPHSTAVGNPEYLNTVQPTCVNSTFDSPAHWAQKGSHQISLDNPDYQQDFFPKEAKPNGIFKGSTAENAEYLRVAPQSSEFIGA

The experiment addresses T1, epidermal growth factor receptor tyrosine kinase (EGFR-TK) (Homo sapiens, UniProt P00533).
T1 construct: commercial purified EGFR (Sigma-Aldrich), called both purified Epidermal Growth Factor Receptor and purified recombinant EGFR tyrosine kinase
Put plainly: ELISA kinase assay, poly(Glu,Tyr) phosphorylation, anti-phosphotyrosine antibody, […] nm. The format is biochemical. For orientation: In an ELISA, binding on a coated surface is turned into a signal by an enzyme label.
`Fc1ccccc1Nc1nc(-c2ccc(Cl)cc2)nc2ccc(Br)cc12` [3g, 6-Bromo-2-(4-chlorophenyl)-N-(2-fluorophenyl)quinazolin-4-amine] came in with an IC50 of 70 nM.

The compound `Fc1ccc(Nc2nc(-c3ccc(Cl)cc3)nc3ccc(Br)cc23)c(F)c1` [3l, 6-Bromo-2-(4-chlorophenyl)-N-(2,4-difluorophenyl)quinazolin-4-amine] displayed an IC50 of 37.7 nM.

The compound `Fc1ccc(-c2ccc3nc(-c4ccc(Cl)cc4)nc(Nc4ccc(F)cc4F)c3c2)cc1` [4l, [2-(4-Chlorophenyl)-6-(4-fluorophenyl)quinazolin-4-yl]-2,4-difluorophenylamine] returned an IC50 of 59.2 nM.
